Laboratory results as given in PMC11277489, “Novel Piperazine Derivatives of Vindoline as Anticancer Agents” (International Journal of Molecular Sciences, 2024).

How the values were obtained:
[1] = system: MOLT-4; assay: NCI60 five-dose screen, Leukemia; type: cell-based; conditions: Homo sapiens; MOLT-4, Leukemia; five-dose screen; read-out: GI50
[2] = system: OVCAR-3; assay: NCI60 one-dose screen (10 μM), Ovarian Cancer; type: cell-based; conditions: Homo sapiens; 10 μM; OVCAR-3, Ovarian Cancer; read-out: Growth percent rate
[3] = system: MCF7; assay: NCI60 five-dose screen, Breast Cancer; type: cell-based; conditions: Homo sapiens; MCF7, Breast Cancer; five-dose screen; read-out: GI50
[4] = system: SR; assay: NCI60 one-dose screen (10 μM), Leukemia; type: cell-based; conditions: Homo sapiens, 10 μM, Leukemia, read-out: Growth percent rate
[5] = system: SF-295; assay: NCI60 five-dose screen, CNS Cancer; type: cell-based; conditions: Homo sapiens; SF-295, CNS Cancer; five-dose screen; read-out: GI50
[6] = system: U251; assay: NCI60 five-dose screen, CNS Cancer; type: cell-based; conditions: Homo sapiens, U-251; U251, CNS Cancer; five-dose screen; read-out: GI50
[7] = system: NCI-H226; assay: NCI60 one-dose screen (10 μM), Non-small Cell Lung Cancer; type: cell-based; conditions: Homo sapiens; 10 μM; NCI-H226, Non-small Cell Lung Cancer; read-out: Growth percent rate
[8] = system: HCC-2998; assay: NCI60 five-dose screen, Colon Cancer; type: cell-based; conditions: Homo sapiens; HCC-2998, Colon Cancer; five-dose screen; read-out: GI50
[9] = system: SF-539; assay: NCI60 five-dose screen, CNS Cancer; type: cell-based; conditions: Homo sapiens; SF-539, CNS Cancer; five-dose screen; read-out: GI50
[10] = system: KM12; assay: NCI60 one-dose screen (10 μM), Colon Cancer; type: cell-based, human; conditions: Homo sapiens; 10 μM; KM12, Colon Cancer; read-out: Growth percent rate
[11] = system: SK-OV-3; assay: NCI60 one-dose screen (10 μM), Ovarian Cancer; type: cell-based; conditions: Homo sapiens; 10 μM; SK-OV-3, Ovarian Cancer; read-out: Growth percent rate
[12] = system: MDA-MB-231/ATCC; assay: NCI60 one-dose screen (10 μM), Breast Cancer; type: cell-based, human; conditions: Homo sapiens; 10 μM; MDA-MB-231/ATCC, Breast Cancer; read-out: Growth percent rate
[13] = system: M14; assay: NCI60 five-dose screen, Melanoma; type: cell-based; conditions: Homo sapiens; M14, Melanoma; five-dose screen; read-out: GI50
[14] = system: NCI-H522; assay: NCI60 five-dose screen, Non-small Cell Lung Cancer; type: cell-based; conditions: Homo sapiens; NCI-H522, Non-small Cell Lung Cancer; five-dose screen; read-out: GI50
[15] = system: MDA-MB-468; assay: NCI60 five-dose screen, Breast Cancer; type: cell-based; conditions: Homo sapiens; MDA-MB-468, Breast Cancer; five-dose screen; read-out: GI50
[16] = system: NCI-H23; assay: NCI60 five-dose screen, Non-small Cell Lung Cancer; type: cell-based; conditions: Homo sapiens; NCI-H23, Non-small Cell Lung Cancer; five-dose screen; read-out: GI50
[17] = system: UACC-62; assay: NCI60 one-dose screen (10 μM), Melanoma; type: cell-based; conditions: Homo sapiens; 10 μM; UACC-62, Melanoma; read-out: Growth percent rate
[18] = system: SF-268; assay: NCI60 five-dose screen, CNS Cancer; type: cell-based; conditions: Homo sapiens; SF-268, CNS Cancer; five-dose screen; read-out: GI50
[19] = system: EKVX; assay: NCI60 five-dose screen, Non-small Cell Lung Cancer; type: cell-based; conditions: Homo sapiens, Non-small Cell Lung Cancer, five-dose screen, read-out: GI50
[20] = system: BT-549; assay: NCI60 one-dose screen (10 μM), Breast Cancer; type: cell-based; conditions: Homo sapiens; 10 μM; BT-549, Breast Cancer; read-out: Growth percent rate
[21] = system: SNB-75; assay: NCI60 one-dose screen (10 μM), CNS Cancer; type: cell-based, human; conditions: Homo sapiens; 10 μM; SNB-75, CNS Cancer; read-out: Growth percent rate
[22] = system: HT29; assay: NCI60 five-dose screen, Colon Cancer; type: cell-based; conditions: Homo sapiens, HT-29; HT29, Colon Cancer; five-dose screen; read-out: GI50
[23] = system: HOP-92; assay: NCI60 one-dose screen (10 μM), Non-small Cell Lung Cancer; type: cell-based; conditions: Homo sapiens; 10 μM; HOP-92, Non-small Cell Lung Cancer; read-out: Growth percent rate
[24] = system: RXF 393; assay: NCI60 five-dose screen, Renal Cancer; type: cell-based; conditions: Homo sapiens, RXF 393, Renal Cancer
[25] = system: HCT-15; assay: NCI60 five-dose screen, Colon Cancer; type: cell-based; conditions: Homo sapiens; HCT-15, Colon Cancer; five-dose screen; read-out: GI50
[26] = system: PC-3; assay: NCI60 one-dose screen (10 μM), Prostate Cancer; type: cell-based; conditions: Homo sapiens; 10 μM; PC-3, Prostate Cancer; read-out: Growth percent rate
[27] = system: A549/ATCC; assay: NCI60 five-dose screen, Non-small Cell Lung Cancer; type: cell-based; conditions: Homo sapiens; A549/ATCC, Non-small Cell Lung Cancer; five-dose screen; read-out: GI50
[28] = system: SK-MEL-5; assay: NCI60 five-dose screen, Melanoma; type: cell-based; conditions: Homo sapiens; SK-MEL-5, Melanoma; five-dose screen; read-out: GI50
[29] = system: SK-MEL-2; assay: NCI60 one-dose screen (10 μM), Melanoma; type: cell-based; conditions: Homo sapiens; 10 μM; SK-MEL-2, Melanoma; read-out: Growth percent rate
[30] = system: CCRF-CEM; assay: NCI60 one-dose screen (10 μM), Leukemia; type: cell-based; conditions: Homo sapiens, 10 μM, Leukemia, read-out: Growth percent rate
[31] = system: A498; assay: NCI60 five-dose screen, Renal Cancer; type: cell-based; conditions: Homo sapiens; A498, Renal Cancer; five-dose screen; read-out: GI50
[32] = system: OVCAR-8; assay: NCI60 five-dose screen, Ovarian Cancer; type: cell-based; conditions: Homo sapiens; OVCAR-8, Ovarian Cancer; five-dose screen; read-out: GI50
[33] = system: HL-60(TB); assay: NCI60 five-dose screen, Leukemia; type: cell-based; conditions: Homo sapiens; HL-60(TB), Leukemia; five-dose screen; read-out: GI50
[34] = system: RPMI-8226; assay: NCI60 five-dose screen, Leukemia; type: cell-based; conditions: Homo sapiens; RPMI-8226, Leukemia; five-dose screen; read-out: GI50
[35] = system: LOX IMVI; assay: NCI60 five-dose screen, Melanoma; type: cell-based; conditions: Homo sapiens, Melanoma, five-dose screen, read-out: GI50
[36] = system: UO-31; assay: NCI60 one-dose screen (10 μM), Renal Cancer; type: cell-based; conditions: Homo sapiens; 10 μM; UO-31, Renal Cancer; read-out: Growth percent rate
[37] = system: MDA-MB-468; assay: NCI60 one-dose screen (10 μM), Breast Cancer; type: cell-based; conditions: Homo sapiens; 10 μM; MDA-MB-468, Breast Cancer; read-out: Growth percent rate
[38] = system: HOP-62; assay: NCI60 five-dose screen, Non-small Cell Lung Cancer; type: cell-based; conditions: Homo sapiens; HOP-62, Non-small Cell Lung Cancer; five-dose screen; read-out: GI50
[39] = system: OVCAR-5; assay: NCI60 five-dose screen, Ovarian Cancer; type: cell-based; conditions: Homo sapiens; OVCAR-5, Ovarian Cancer; five-dose screen; read-out: GI50
[40] = system: SK-OV-3; assay: NCI60 five-dose screen, Ovarian Cancer; type: cell-based; conditions: Homo sapiens; SK-OV-3, Ovarian Cancer; five-dose screen; read-out: GI50
[41] = system: NCI/ADR-RES; assay: NCI60 one-dose screen (10 μM), Ovarian Cancer; type: cell-based; conditions: Homo sapiens, 10 μM, Ovarian Cancer, read-out: Growth percent rate
[42] = system: DU-145; assay: NCI60 one-dose screen (10 μM), Prostate Cancer; type: cell-based; conditions: Homo sapiens; 10 μM; DU-145, Prostate Cancer; read-out: Growth percent rate
[43] = system: OVCAR-5; assay: NCI60 one-dose screen (10 μM), Ovarian Cancer; type: cell-based; conditions: Homo sapiens; 10 μM; OVCAR-5, Ovarian Cancer; read-out: Growth percent rate
[44] = system: T-47D; assay: NCI60 one-dose screen (10 μM), Breast Cancer; type: cell-based; conditions: Homo sapiens, T47D; 10 μM; T-47D, Breast Cancer; read-out: Growth percent rate
[45] = system: UACC-257; assay: NCI60 five-dose screen, Melanoma; type: cell-based; conditions: Homo sapiens; UACC-257, Melanoma; five-dose screen; read-out: GI50
[46] = system: 786–0; assay: NCI60 five-dose screen, Renal Cancer; type: cell-based; conditions: Homo sapiens; 786–0, Renal Cancer; five-dose screen; read-out: GI50

CC[C@]12C=CCN3CC[C@@]4(c5ccc(OC)cc5N(C)[C@H]4[C@@](O)(C(=O)OC)[C@@H]1OC(=O)CCC(=O)N1CCN(c4ccc(C(F)(F)F)cc4)CC1)[C@@H]32 [Compound 28]
GI50 [1]: 1.17 µM
activity at 10 µM [2]: -2.22%
GI50 [3]: 2.95 µM
activity at 10 µM [4]: 18.4%
GI50 [5]: 3.16 µM
GI50 [6]: 3.31 µM
activity at 10 µM [7]: 14.9%
GI50 [8]: 2.4 µM
GI50 [9]: 5.25 µM
activity at 10 µM [10]: 3.83%
activity at 10 µM [11]: 37.5%
activity at 10 µM [12]: -47%
GI50 [13]: 2.4 µM
GI50 [14]: 3.24 µM
GI50 [15]: 1.86 µM
GI50 [16]: 4.37 µM
activity at 10 µM [17]: -75.8%
GI50 [18]: 4.07 µM
GI50 [19]: 3.63 µM
activity at 10 µM [20]: 12.9%
activity at 10 µM [21]: 26.2%
GI50 [22]: 2.57 µM
activity at 10 µM [23]: -3.33%
GI50 [24]: 2.29 µM
GI50 [25]: 3.16 µM
activity at 10 µM [26]: 3.75%
GI50 [27]: 2.75 µM
GI50 [28]: 3.24 µM
activity at 10 µM [29]: -84.7%
activity at 10 µM [30]: 4.4%
GI50 [31]: 5.75 µM
GI50 [32]: 3.72 µM
GI50 [33]: 1.45 µM
GI50 [34]: 2.57 µM
GI50 [35]: 3.24 µM
activity at 10 µM [36]: 10.3%
activity at 10 µM [37]: -42.8%
GI50 [38]: 5.5 µM
GI50 [39]: 5.25 µM
GI50 [40]: 3.89 µM
activity at 10 µM [41]: 5.44%
activity at 10 µM [42]: 15.4%
activity at 10 µM [43]: 2.55%
activity at 10 µM [44]: 38.4%
GI50 [45]: 3.89 µM
GI50 [46]: 5.01 µM
